From ChEMBL document CHEMBL1201862, “PubChem BioAssay data set” (2004)
Calls of active or inactive are those of the source.

Experiments:
[1] = biological target: T1, Low molecular weight phosphotyrosine protein phosphatase (Homo sapiens, UniProt P24666); type: functional; conditions: read-out: IC50_Mean;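 note: Dose-response confirmation assay measuring inhibition of LMPTP enzyme activity by fluorescence intensity read-out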
T1 sequence (P24666 whole entry): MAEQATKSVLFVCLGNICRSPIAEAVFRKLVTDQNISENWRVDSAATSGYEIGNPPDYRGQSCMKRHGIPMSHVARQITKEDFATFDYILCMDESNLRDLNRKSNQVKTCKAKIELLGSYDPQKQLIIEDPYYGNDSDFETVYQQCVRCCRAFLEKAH

[2] = inhibitors of HIV Env-driven cell fusion, dose response, cherry-pick (AID 652057); type: functional, cell-based
[3] = CEM21 lymphoblast cell cytotoxicity, dose response, cytotoxicity control for viral fusion inhibitor project, CellTiter-Glo luminescence, cherry-picked (AID 652042); type: functional, cell-based;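 note: potency for signal decrease meaning cytotoxicity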
[4] = ZM109 Env clade C HIV-1 fusion inhibitors, dose response, HeLa effector, CEM target cells, luciferase, cherry-pick (AID 652058); type: functional, cell-based
[5] = off-target signal loss in HeLa-CEM21 co-culture – HeLa F-luc CTL cells, cherry-picked, counter-screen for HIV-1 Env fusion inhibitor project, dose response (AID 652040); type: functional, cell-based;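 note: potency for signal decrease marking cytotoxic or nonspecific inhibition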
[6] = inhibitors of clade B AD8 Env fusion, dose response, cell-based, cherry-pick (AID 652062); type: functional;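 note: luciferase signal from cell-cell fusion driven by HIV-1 clade B AD8 Env; potency is for inhibitors of fusion seen as a drop in luminescence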
[7] = NIH-3T3 fibroblast cytotoxicity, dose response, cytotoxicity control, cell-based, fluorescence, Alamar Blue, secondary assay (AID 2327); type: functional;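 note: NIH-3T3 mouse fibroblasts cultured with fluconazole at 8 µg/mL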
[8] = system: Streptococcus sp. 'group A'; test: growth inhibition of control SK(-) GAS strain, dose response, counter-screen for streptokinase expression inhibitor project, luminescence, kanamycin, BacTiterGlo, confirmation (AID 1900); type: functional, organism-based
Streptokinase A = biological target: T2, Streptokinase A (Streptococcus pyogenes serotype M1, UniProt P10520); test: S. pyogenes streptokinase expression inhibitors, potency, dose response, plasminogen activation absorbance, OD405 (AID 1914); type: functional, Streptococcus pyogenes M1 GAS;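 note: secreted streptokinase activity via plasminogen activation per viability signal from cell pellet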
T2 sequence (P10520 whole entry): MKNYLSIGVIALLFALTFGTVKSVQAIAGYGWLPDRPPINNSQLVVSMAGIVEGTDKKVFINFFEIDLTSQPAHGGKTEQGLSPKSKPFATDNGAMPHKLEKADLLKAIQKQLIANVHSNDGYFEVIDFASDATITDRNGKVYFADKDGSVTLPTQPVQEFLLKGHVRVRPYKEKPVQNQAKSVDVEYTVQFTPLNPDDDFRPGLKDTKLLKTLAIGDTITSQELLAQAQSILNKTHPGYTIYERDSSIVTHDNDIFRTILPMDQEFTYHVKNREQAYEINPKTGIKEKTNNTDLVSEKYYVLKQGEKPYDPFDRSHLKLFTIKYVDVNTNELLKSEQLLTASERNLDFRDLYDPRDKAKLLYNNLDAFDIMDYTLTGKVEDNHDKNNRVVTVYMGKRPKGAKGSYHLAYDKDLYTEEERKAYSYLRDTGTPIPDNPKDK

[9] = C. albicans growth with fluconazole, confirmation, fluorescence, retest (AID 2467); type: functional, cell-based
[10] = biological target: T3, Serine/threonine-protein phosphatase (Candida dubliniensis (strain CD36 / CBS 7987 / NCPF 3949 / NRRLY-17841) (Yeast), UniProt B9W6M3); test: calcineurin pathway inhibitors in yeast reporter, dose response, S. cerevisiae, CDRE-lacZ, luminescence, secondary (AID 2388); type: functional, cell-based;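 note: yeast reporter cells carrying a calcineurin-responsive lacZ construct stimulated with calcium chloride; luminescent beta-galactosidase reporter signal in whole cells rather than isolated phosphatase activity; potency for inhibition where a drop in reporter signal means calcineurin blockade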
T3 sequence (B9W6M3 whole entry): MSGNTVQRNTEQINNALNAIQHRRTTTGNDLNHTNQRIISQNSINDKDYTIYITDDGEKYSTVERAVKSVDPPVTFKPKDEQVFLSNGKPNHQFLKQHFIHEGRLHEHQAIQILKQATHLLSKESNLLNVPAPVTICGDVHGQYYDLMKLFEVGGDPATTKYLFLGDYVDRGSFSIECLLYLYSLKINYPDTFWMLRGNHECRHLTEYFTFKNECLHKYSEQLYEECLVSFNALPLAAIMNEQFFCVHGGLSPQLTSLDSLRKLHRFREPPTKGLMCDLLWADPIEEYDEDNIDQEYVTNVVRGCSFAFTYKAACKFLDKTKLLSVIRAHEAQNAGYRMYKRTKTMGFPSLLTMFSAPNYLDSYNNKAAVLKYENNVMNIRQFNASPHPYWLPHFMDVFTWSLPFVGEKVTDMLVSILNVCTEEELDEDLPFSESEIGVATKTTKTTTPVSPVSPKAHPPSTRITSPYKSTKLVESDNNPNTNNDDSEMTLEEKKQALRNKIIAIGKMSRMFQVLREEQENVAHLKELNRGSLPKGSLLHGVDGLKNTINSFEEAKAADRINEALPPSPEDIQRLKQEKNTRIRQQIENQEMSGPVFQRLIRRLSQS

Streptococcus = test: Group A Streptococcus viability loss, dose response, counter-screen for streptokinase expression inhibitor project, luminescence, BacTiterGlo (AID 1915); type: functional, organism-based;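 note: potency for reduction of bacterial viability or growth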
[11] = biological target: ATP-dependent molecular chaperone HSP82 (Candida albicans (strain WO-1) (Yeast), UniProt C4YTQ8); test: loss of DOC-induced GRE-beta-galactosidase reporter signal, dose response, Hsp90 inhibitor project, S. cerevisiae, luminescence (AID 2400); type: functional, cell-based;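 note: beta-galactosidase luminescence from glucocorticoid response element reporter as proxy for Hsp90 function; inhibitor potency where signal loss means Hsp90 inhibition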
Chain of ATP-dependent molecular chaperone HSP82 (C4YTQ8 whole entry): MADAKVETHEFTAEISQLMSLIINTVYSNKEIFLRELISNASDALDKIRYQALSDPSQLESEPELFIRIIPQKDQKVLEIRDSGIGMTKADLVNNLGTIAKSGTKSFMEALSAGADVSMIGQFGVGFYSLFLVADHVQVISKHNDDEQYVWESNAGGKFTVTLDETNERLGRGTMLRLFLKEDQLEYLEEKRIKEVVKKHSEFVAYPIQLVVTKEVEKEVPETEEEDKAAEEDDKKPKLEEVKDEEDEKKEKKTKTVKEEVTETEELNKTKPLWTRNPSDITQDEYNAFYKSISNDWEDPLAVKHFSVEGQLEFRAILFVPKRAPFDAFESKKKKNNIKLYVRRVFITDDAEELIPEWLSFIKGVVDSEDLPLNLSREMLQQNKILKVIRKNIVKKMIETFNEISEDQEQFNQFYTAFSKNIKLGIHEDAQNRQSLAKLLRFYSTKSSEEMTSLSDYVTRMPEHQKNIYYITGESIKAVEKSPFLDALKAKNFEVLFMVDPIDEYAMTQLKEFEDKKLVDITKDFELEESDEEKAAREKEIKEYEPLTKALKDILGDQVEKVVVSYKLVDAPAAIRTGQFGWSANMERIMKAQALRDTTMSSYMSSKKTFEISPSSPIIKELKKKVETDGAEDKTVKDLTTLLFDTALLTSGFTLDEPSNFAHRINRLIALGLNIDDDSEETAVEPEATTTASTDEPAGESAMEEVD

[12] = biological target: T4, Corticotropin-releasing factor receptor 2/Corticotropin-releasing factor-binding protein (Homo sapiens, UniProt P24387+Q13324); test: activators of CRF receptor 2 with binding protein – uHTS hits, confirmation (AID 602473); type: functional; conditions: read-out: EC50_Mean
T4 sequence (Q13324 whole entry): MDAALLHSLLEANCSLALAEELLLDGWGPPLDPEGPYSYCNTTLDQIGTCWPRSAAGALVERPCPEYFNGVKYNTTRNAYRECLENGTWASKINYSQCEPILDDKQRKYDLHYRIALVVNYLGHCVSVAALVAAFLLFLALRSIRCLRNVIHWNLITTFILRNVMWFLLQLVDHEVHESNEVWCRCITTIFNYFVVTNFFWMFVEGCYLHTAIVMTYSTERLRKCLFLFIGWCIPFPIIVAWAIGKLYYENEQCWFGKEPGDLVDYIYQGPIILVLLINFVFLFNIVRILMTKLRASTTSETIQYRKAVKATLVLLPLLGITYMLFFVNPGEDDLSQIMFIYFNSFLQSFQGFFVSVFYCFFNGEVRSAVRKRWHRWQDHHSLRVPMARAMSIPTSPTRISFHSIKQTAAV
T4 sequence (P24387 whole entry): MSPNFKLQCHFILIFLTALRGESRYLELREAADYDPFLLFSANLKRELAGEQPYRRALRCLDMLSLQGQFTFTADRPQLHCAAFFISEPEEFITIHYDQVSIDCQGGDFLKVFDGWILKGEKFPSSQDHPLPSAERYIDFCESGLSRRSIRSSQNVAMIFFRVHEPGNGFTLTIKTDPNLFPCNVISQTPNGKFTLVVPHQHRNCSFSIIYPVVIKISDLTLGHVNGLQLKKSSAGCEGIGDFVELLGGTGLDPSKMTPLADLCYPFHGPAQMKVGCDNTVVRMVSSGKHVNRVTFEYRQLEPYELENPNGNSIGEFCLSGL

cells [13] = type: functional, cell-based
cells [14] = type: functional, cell-based; remark: listed apart in the source
[15] = biological target: T5, Sentrin-specific protease 8 (Homo sapiens, UniProt Q96LD8); type: functional
T5 sequence (Q96LD8 whole entry): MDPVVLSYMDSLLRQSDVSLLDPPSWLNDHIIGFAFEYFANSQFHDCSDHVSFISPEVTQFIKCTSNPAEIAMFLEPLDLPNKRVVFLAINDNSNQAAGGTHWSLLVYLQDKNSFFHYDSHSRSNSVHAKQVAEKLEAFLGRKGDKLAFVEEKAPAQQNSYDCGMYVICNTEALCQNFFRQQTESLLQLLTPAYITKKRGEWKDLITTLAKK

[16] = biological target: T5, Sentrin-specific protease 8; type: functional; remark: listed apart in the source
[17] = biological target: T6, Apoptotic protease-activating factor 1 (Homo sapiens, UniProt O14727); test: SAR analysis of small molecule Activators of Apaf-1 in a Fluorescent assay.; type: functional; conditions: read-out: EC50_Mean;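 note: caspase-3 cleavage of fluorogenic Rh110 DEVD substrate downstream of apoptosome activation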
T6 sequence (O14727 whole entry): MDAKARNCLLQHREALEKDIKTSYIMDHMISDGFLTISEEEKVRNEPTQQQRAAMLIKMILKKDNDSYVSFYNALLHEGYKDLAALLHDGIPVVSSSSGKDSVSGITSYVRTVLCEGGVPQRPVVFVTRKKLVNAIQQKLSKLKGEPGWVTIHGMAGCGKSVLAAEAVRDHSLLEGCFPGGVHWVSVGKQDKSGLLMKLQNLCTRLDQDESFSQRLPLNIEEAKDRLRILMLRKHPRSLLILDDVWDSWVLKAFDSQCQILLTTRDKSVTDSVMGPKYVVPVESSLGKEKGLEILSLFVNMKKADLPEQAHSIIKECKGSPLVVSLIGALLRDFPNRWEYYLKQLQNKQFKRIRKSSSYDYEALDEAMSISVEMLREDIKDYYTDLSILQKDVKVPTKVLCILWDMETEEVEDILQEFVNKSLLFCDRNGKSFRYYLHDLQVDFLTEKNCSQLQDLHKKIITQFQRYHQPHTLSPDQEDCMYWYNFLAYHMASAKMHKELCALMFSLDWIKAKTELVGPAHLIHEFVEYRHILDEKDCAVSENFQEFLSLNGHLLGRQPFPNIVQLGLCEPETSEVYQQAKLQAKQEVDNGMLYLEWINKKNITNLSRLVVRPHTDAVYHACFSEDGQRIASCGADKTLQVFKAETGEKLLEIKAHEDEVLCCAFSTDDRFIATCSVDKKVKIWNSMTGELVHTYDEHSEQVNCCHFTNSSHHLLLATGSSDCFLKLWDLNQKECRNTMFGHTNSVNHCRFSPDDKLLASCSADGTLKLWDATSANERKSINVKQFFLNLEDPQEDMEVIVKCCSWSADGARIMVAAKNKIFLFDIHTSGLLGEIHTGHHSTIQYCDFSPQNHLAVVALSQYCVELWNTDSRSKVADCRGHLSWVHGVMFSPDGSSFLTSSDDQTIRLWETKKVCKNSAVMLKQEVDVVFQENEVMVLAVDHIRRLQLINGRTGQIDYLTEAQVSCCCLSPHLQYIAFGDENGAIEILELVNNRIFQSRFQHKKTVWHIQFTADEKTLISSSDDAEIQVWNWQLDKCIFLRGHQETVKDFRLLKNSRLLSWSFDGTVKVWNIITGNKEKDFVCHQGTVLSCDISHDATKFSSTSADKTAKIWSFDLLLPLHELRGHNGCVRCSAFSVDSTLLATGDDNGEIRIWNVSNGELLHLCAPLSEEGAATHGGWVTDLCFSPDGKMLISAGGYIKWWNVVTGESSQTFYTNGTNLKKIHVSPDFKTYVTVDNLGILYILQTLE

H9c2 = test: cells; type: functional, cell-based; conditions: Rattus norvegicus, H9c2, Myocardium;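 note: confirmatory concentration-response retest of ultra-high-throughput screening hits for modulation of myocardial damage; cell death induced by hydrogen peroxide oxidative stress; compound pretreatment for 60 min then peroxide exposure for 2 h; potency is for protecting the cells against peroxide damage rather than for killing them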
[18] = biological target: 26S proteasome non-ATPase regulatory subunit 14 (Homo sapiens, UniProt O00487); test: inhibition of proteasome subunit RPN11 – biochemical, fluorescence polarization, uHTS hits, confirmation (AID 602368); type: functional
Chain of 26S proteasome non-ATPase regulatory subunit 14 (O00487 whole entry): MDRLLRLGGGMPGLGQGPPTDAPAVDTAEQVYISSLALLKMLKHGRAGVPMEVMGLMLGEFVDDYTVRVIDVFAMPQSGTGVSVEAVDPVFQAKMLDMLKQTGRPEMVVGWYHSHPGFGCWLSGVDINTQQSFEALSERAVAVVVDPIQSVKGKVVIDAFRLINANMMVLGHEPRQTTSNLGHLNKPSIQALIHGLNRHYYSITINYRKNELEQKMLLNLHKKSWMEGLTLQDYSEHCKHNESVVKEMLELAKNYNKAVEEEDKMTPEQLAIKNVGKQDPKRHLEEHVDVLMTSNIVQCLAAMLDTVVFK

[19] = biological target: 72 kDa type IV collagenase (Homo sapiens, UniProt P08253); test: Dose Response validation of uHTS RPN11 inhibitor hits using a MMP-2 Fluorescence assay.; type: functional
Chain of 72 kDa type IV collagenase (P08253 whole entry): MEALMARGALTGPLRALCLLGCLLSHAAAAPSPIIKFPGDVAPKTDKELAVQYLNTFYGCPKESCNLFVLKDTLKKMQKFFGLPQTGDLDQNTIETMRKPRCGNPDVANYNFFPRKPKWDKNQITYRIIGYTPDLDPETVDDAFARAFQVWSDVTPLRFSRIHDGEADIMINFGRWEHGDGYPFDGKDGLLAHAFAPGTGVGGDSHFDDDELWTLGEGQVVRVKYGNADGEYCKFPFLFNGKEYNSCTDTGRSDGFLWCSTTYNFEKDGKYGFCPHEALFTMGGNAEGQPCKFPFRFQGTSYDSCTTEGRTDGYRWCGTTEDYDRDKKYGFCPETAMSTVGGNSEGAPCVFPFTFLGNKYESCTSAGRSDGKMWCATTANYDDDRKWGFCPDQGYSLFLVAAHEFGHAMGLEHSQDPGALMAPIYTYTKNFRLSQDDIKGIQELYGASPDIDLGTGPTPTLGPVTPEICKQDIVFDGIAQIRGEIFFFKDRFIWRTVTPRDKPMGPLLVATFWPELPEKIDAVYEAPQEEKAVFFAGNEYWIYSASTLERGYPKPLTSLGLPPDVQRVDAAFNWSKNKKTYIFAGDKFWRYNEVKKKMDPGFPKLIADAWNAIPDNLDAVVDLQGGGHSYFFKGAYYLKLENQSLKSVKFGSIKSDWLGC

Prothrombin = Prothrombin (Bos taurus, UniProt P00735); test: thrombin inhibition, dose response, biochemical, fluorescence polarization, uHTS hits (AID 602369); type: functional
[20] = biological target: T7, Small ubiquitin-related modifier 1 (Homo sapiens, UniProt P63165); test: inhibitors of SUMO1 peptide binding, dose response, biochemical, fluorescence polarization, uHTS hits (AID 624382); type: functional; conditions: read-out: IC50_Mean
T7 sequence (P63165 whole entry): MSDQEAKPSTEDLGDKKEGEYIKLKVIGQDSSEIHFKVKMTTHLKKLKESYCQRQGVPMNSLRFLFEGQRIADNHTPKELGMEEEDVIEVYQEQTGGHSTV

[21] = biological target: T7, Small ubiquitin-related modifier 1; test: inhibitors of SUMO1 partner interactions, dose response, biochemical, FRET (AID 624383); type: functional; conditions: read-out: IC50_Mean
[22] = non-specific cell cytotoxicity, dose response, cytotoxicity control for PAX8 inhibitor project, plate reader, dry powder samples (AID 743021); type: functional, cell-based

O=C(NCCN1CCCC1)c1ccc(Cn2c(=S)[nH]c3cc4c(cc3c2=O)OCO4)cc1
IC50 [1]: 27.2 µM (inactive)

O=C(c1cccc(C(F)(F)F)c1)N1CCc2c([nH]c3ccccc23)C1C(F)(F)F (stereo unspecified)
AC50 [2]: 5.55 µM (active) | AC50 [3]: 50.8 µM (active) | AC50 [4]: 0.66 µM (active) | AC50 [5]: 1.88 µM (active) | AC50 [6]: 1.19 µM (active)

O=C(Nc1nnc(-c2ccncc2)o1)c1ccc2ccccc2c1
EC50 [7]: > 150 µM (inactive) | EC50 [8]: 6.52 µM (active) | EC50 (Streptokinase A): > 150 µM (not active) | EC50 [9]: 1.47 µM (active) | EC50 [10]: > 180 µM (inactive) | EC50 (Streptococcus): 19.5 µM (active) | EC50 [11]: > 150 µM (inactive)

CCOC(=O)Cc1csc(NC(=O)CSc2nnc(-c3ccncc3)o2)n1
EC50 [7]: > 150 µM (inactive) | EC50 [9]: 0.517 µM (active) | EC50 [10]: > 180 µM (inactive) | EC50 [11]: > 150 µM (inactive) | EC50 [12]: > 53 µM (inactive)

O=C(c1nc2ccccn2c1CNCC1OCCc2ccccc21)N1CCOCC1 (stereo unspecified)
IC50 (cells [13]): > 29.9 µM (inactive) | EC50 (cells [14]): > 29.9 µM (inactive)

CC(=O)Nc1ccc(NC(=O)COC(=O)c2ccc([N+](=O)[O-])o2)cc1
IC50 [15]: 7.03 µM (active) | IC50 [16]: 11.8 µM (active)

CCOC(=O)C1(C)Oc2ccccc2NC1=O (stereo unspecified)
EC50 [17]: > 100 µM (inactive)

COc1cc(/C=N/NC(=O)c2cccnc2)ccc1OCC(=O)Nc1ccccc1Cl
IC50 (H9c2): > 79 µM (inactive) | IC50 [18]: 47 µM (active) | IC50 [19]: > 100 µM (inactive) | IC50 (Prothrombin): > 100 µM (inactive) | IC50 [20]: > 66.6 µM (inactive) | IC50 [21]: 100 µM (inactive)

COC(=O)c1coc(-c2cnc(OC)nc2)n1
EC50 [17]: > 100 µM (inactive)

COC(=O)[C@]12C[C@H](CC(=O)NCc3ccc(C)o3)C(=O)N(CCC3=CCCCC3)C1=C[C@H](C(C)(C)C)O[C@@H]2C
AC50 [2]: 1.28 µM (active) | AC50 [3]: 20.3 µM (active) | AC50 [4]: < 0.26 µM (active) | AC50 [5]: 1.71 µM (active) | AC50 [6]: 2.73 µM (active)

C[C@@H]1CCCCO[C@H](CN(C)C)[C@H](C)CN([C@@H](C)CO)C(=O)c2cc(NS(=O)(=O)c3ccc(Cl)cc3)ccc2O1
AC50 [22]: 1.71 µM (active)
